# Where “and” joins values, the source holds several entries; their conditions need not be identical. Equal entries are not always repeated. Where two headings read alike, the source gives them in different places.
# T1: human adenosine A3 receptor (Homo sapiens, UniProt P0DMS8)
# T1 sequence (P0DMS8 1-318): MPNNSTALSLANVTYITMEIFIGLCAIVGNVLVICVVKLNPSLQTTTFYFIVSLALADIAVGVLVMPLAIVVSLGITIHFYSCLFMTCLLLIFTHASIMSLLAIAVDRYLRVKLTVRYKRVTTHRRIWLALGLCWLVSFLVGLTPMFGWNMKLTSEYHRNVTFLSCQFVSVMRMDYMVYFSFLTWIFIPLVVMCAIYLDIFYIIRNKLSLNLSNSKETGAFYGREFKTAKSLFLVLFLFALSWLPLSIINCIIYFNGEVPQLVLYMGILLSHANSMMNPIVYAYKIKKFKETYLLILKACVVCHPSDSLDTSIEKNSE
# Columns and labels:
# [1] = target: T1, human adenosine A3 receptor; assay: Inhibition of forskolin-stimulated adenylyl cyclase via A3 receptor, CHO cell membranes; format: biochemical; settings: membranes of CHO cells stably transfected with human A3
# Protocol: The A1 and A3 receptor-mediated inhibition of forskolin-stimulated adenylyl cyclase activity was tested in membranes prepared from CHO cells stably transfected with the human A1 and A3 adenosine receptors.
# BALB/c mice [2] = format: in vivo
# Source text: (§1) The rodent retina is widely used to investigate retinal diseases, as well as the response of central nervous system neurons to injury. Light-induced retinal damage (phototoxicity) selectively brings about photoreceptor cell death. Thus, this model is useful for studying the potential mechanisms underlying photoreceptor death and the subsequent retinal degeneration processes since it mimics the photoreceptor degeneration that forms the main characteristic of age-related macular degeneration.
# (§2) Aliquots were removed from the refrigerator and allowed to warm to room temperature for at least 30 minutes before dosing. The positive control, BDNF, was reconstituted with 0.9% Sodium Chloride for Injection, USP at a concentration of 1 μg/μL. Any residual volumes were discarded.
# (§3) Thirty-four (34) male BALB/c mice were received from Charles River, St Constant.
# The dose volume for each eye/dose was 10 μL. The formulations were stirred continuously during dose administration and were retained on wet ice between doses.
# (§4) The positive control, BDNF, was administered to Group 4 animals by single bilateral intravitreal (IVT) injection on Day 1. The dose volume was 1 μL/eye. Animals were anesthetized for the dosing procedure using an isoflurane/oxygen mix and/or a sedative cocktail (ketamine 100 mg/kg; xylazine 10 mg/kg; half or quarter dose if needed given by intraperitoneal injection). Injections were made using a glass microneedle connected to a Hamilton syringe via a sclera pilot hole created with a 30 G needle. A bland lubricating ointment was applied to the eyes following dosing.
# On Day 2, animals were transferred to the blue light bins (housed individually). Light fixtures with bulbs emitting blue light (460 to 490 nm; Philips F40/BB Special Blue F40T12/BB) were attached to separate housing racks directly above the cages, such that all animals received similar light exposure. […] Hiding devices/tubes and bedding were not available in the bins.
# The anesthetic used was ketamine (100 mg/kg) and xylazine (10 mg/kg).
# All animals were euthanized on Day 8 and underwent exsanguination from the abdominal aorta after carbon dioxide asphyxiation.
# One eye from each animal was embedded in paraffin, sectioned, mounted on glass slides, and stained with hematoxylin and eosin.
# The outer nuclear layer (ONL) thickness (number of cell layers) were counted at 4 locations in the retina and a microscopic evaluation of the retina, including pigmented retinal epithelial cells, was conducted.
# BALB/c mice [3] = format: in vivo; settings: for Group mean of the number of cell layers in retinal outer nuclear layer: placebo 7.22
# Source text: as §1, §2, §3
# The test item and placebo were administered by twice-daily topical ocular instillation from Days 1 to 7, separated by at least 8 hours. The dose volume for each eye/dose was 10 μL. The formulations were stirred continuously during dose administration and were retained on wet ice between doses.
# as §4
# On Day 2, animals were transferred to the blue light bins (housed individually). Light fixtures with bulbs emitting blue light (460 to 490 nm; Philips F40/BB Special Blue F40T12/BB) were attached to separate housing racks directly above the cages, such that all animals received similar light exposure. The light intensity in the bins was measured using a light meter; the average intensity was 550 lux. Hiding devices/tubes and bedding were not available in the bins.
# Mortality/moribundity checks were performed twice daily, once in the morning and once in the afternoon, throughout the study. Detailed examinations were performed weekly. Individual body weights were measured twice pre-treatment and at necropsy.
# Electroretinography (ERG) was performed once pre-treatment and once at the end of Week 1 following overnight dark adaptation. The anesthetic used was ketamine (100 mg/kg) and xylazine (10 mg/kg).
# All animals were euthanized on Day 8 and underwent exsanguination from the abdominal aorta after carbon dioxide asphyxiation. No necropsy examinations were performed.
# One eye from each animal was embedded in paraffin, sectioned, mounted on glass slides, and stained with hematoxylin and eosin. The other eye was retained.
# Histopathological evaluation was performed by a board-certified veterinary pathologist or veterinary pathologist with training and experience in laboratory animal pathology. The outer nuclear layer (ONL) thickness (number of cell layers) were counted at 4 locations in the retina and a microscopic evaluation of the retina, including pigmented retinal epithelial cells, was conducted. Representative images were captured for consultation and illustrative purposes.
# A2A adenosine receptor = A2A adenosine receptor (Homo sapiens, UniProt P29274); assay: Adenosine receptor binding, A1 > A2A selectivity; settings: ratio of Ki values
# Chain of A2A adenosine receptor (P29274 whole entry): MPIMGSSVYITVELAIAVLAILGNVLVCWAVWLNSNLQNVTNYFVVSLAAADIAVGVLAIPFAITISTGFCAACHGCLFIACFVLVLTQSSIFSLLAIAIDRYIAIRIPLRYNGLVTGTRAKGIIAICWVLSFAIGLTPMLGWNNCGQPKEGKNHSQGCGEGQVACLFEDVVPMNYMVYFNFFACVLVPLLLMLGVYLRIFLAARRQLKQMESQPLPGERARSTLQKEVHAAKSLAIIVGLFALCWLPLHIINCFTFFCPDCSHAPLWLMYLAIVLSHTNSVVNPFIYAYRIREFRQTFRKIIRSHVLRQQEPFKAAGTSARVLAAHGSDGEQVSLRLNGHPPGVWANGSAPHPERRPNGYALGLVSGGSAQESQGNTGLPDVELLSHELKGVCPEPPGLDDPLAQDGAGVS
# Protocol: The cell suspension is then homogenized in ice-cold hypotonic buffer (5 mM Tris/HCl mM EDTA, pH 7.4) and the homogenate is spun for 10 minutes (4° C.) at 1,000 g.
molecule,measurement,setting,value
"O=[N+]([O-])OC[C@H]1O[C@@H](n2cnc3c(NC4CCCC4)ncnc32)[C@H](O)[C@@H]1O [Compound A, ((2R,3S,4R,5R)-5-(6-(cyclopentylamino)-9H-purin-9-yl)-3,4-dihydroxytetrahydrofuran-2-yl)methyl nitrate]",EC50,[1],> 100000 nM
same,"Average number of cell layers in the ONL, placebo compared to treated group",BALB/c mice [2]; 600 or 900 μg/eye/day topical,reduced in the placebo group
same,B-wave amplitude following 0 dB scotopic flash stimuli,"BALB/c mice [2]; 600 or 900 μg/eye/day, versus placebo control, comparable to BDNF positive control",higher
same,Number of nuclear bodies in the ONL based on average ONL thickness counts,"BALB/c mice [2]; low dose group (600 μg/eye/day), compared with all groups",retained the greatest number of nuclear bodies in the ONL
same,Overall ERG function and ONL cellularity after blue light exposure,"BALB/c mice [2]; two or three-times daily at 600 or 900 μg/eye/day topical, 1100 lux for 6 hours on Day 2",preservation of ERG function and cellularity in the ONL layer of the retina
same,Incidence of minimal to moderate decrease in cellularity of the retina,"BALB/c mice [3]; 300 μg/eye/day topical, placebo 6/8",7/8
same,Group mean of the number of cell layers in retinal outer nuclear layer,BALB/c mice [3]; 300 μg/eye/day topical,7.28 layers
same,Incidence of minimally decreased retinal cellularity,"BALB/c mice [3]; 600 μg/eye/day topical, other animals not affected at all",2/8
same,Group mean of the number of cell layers in retinal outer nuclear layer,BALB/c mice [3]; 600 μg/eye/day topical,8.56 layers
same,Overall effect on incidence and severity of decreased retinal cellularity,"BALB/c mice [3]; 600 μg/eye/day, 7 days twice daily topical ocular instillation",protective effect
same,"Retinal outer nuclear layer thickness (Mean number of nuclei), individual animals","BALB/c mice [3]; Group 2, low dose 300 μg/eye/day, animals 2001-2008, mean of 4 measurements per retina",10.00 and 9.25 and 6.50 and 5.25 and 7.25 and 6.25 and 5.50 and 8.25
same,"Retinal outer nuclear layer thickness (Mean number of nuclei), individual animals","BALB/c mice [3]; Group 3, high dose 600 μg/eye/day, animals 3001-3008, mean of 4 measurements per retina",9.25 and 9.00 and 9.75 and 7.75 (2×) and 9.50 and 8.75 and 6.75
same,Abnormalities in general appearance or condition of the animals,"BALB/c mice [3]; male BALB/c mice, dosing period, 300 or 600 μg/eye/day topical twice daily Days 1 to 7",No abnormalities were observed
same,"ERG parameters (scotopic single flash 0 dB, A-wave and B-wave)","BALB/c mice [3]; one week after blue light exposure, 300 or 600 μg/eye/day, versus other groups including placebo",comparable across treatment groups
"O=[N+]([O-])OC[C@H]1O[C@@H](n2cnc3c(NC4CCOC4)ncnc32)[C@H](O)[C@@H]1O (stereo partly drawn) [Compound D, ((2R,3S,4R,5R)-3,4-dihydroxy-5-(6-(tetrahydrofuran-3-ylamino)-9H-purin-9-yl)tetrahydrofuran-2-yl)methyl nitrate]",A1 > A2A SELECTIVITY [KiA2(nm)/KiA1(nm)],A2A adenosine receptor,>9434
"BDNF: Brain Derived Neurotrophic Factor, positive control given by single bilateral intravitreal injection (protein, UniProt P23560 19-247, looked up) Neurotrophic factor BDNF …: APMKEANIRGQGGLAYPGVRTHGTLESVNGPKAGSRGLTSLADTFEHVIEELLDEDQKVRPNEENNKDADLYTSRVMLSSQVPLEPPLLFLLEEYKNYLDAANMSMRVRRHSDPARRGELSVCDSISEWVTAADKKTAVDMSGGTVTVLEKVPVSKGQLKQYFYETKCNPMGYTKEGCRGIDKRHWNSQCRTTQSYVRALTMDSKKRIGWRFIRIDTSCVCTLTIKRGR","Average number of cell layers in the ONL, placebo compared to treated group","BALB/c mice [2]; BDNF control, 1 μg/eye IVT",reduced in the placebo group
same,Group mean of the number of cell layers in retinal outer nuclear layer,BALB/c mice [3]; 1 μg/eye single IVT injection Day 1,8.75 layers
same,"Retinal outer nuclear layer thickness (Mean number of nuclei), individual animals","BALB/c mice [3]; Group 4, 1 μg/eye/day IVT, animals 4001-4008, mean of 4 measurements per retina",7.75 (2×) and 9.25 and 8.50 (2×) and 8.75 and 10.50 and 9.00

# — patent US20160158267A1, “METHODS OF PREVENTING, REDUCING OR TREATING MACULAR DEGENERATION” (Inotek Pharmaceuticals Corporation, priority 2014, published 2016)
